These are literature values, as cited in patent US20250295156A1, “LOADED GRANULES, THEIR PROCESS OF PRODUCTION AND THEIR USES” (Evie SA, priority 2019, published 2025).

The conditions of data set [1]: humans, orally; no reported psychomotor slowing, negative mood effects, or vital sign abnormalities (Bergamaschi et al., 2011).
The target in another data set is cannabinoid CB2 receptor (Homo sapiens, UniProt P34972).
Sequence of cannabinoid CB2 receptor (P34972 whole entry): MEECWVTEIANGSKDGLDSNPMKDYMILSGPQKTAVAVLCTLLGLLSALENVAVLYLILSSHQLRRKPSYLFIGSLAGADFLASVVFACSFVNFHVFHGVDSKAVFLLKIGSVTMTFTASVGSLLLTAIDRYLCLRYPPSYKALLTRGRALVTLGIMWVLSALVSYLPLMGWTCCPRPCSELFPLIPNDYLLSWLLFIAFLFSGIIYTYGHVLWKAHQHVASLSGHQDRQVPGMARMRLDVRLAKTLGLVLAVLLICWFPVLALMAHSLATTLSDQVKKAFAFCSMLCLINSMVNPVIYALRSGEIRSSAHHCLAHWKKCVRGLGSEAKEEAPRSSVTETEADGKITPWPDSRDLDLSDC

For the compound `C=C(C)[C@@H]1CCC(C)=C[C@H]1c1c(O)cc(CCCCC)cc1O` [Cannabidiol], in data set [1], the well tolerated dose entry is “up to 1500 mg/day”. Further, the “affinity for CB2 receptor” value on cannabinoid CB2 receptor is reported as “very low affinity”.
